Experimental data from EP0643558B1, “SANITIZING COMPOSITIONS” (ECOLAB INC., priority 1991, dated 1992).

Legend:
Format in all cases: cell-based
Escherichia coli = test: A.O.A.C. Sanitizing Test (Germicidal and Detergent Sanitizing Action of Disinfectants, para. 960.09); conditions: use solutions, 0.1 wt-% fatty acid + 0.1 wt-% lactic acid (88% w/v) in distilled water, solution pH 2.96-2.97
From the text: (§1) A sanitizer is an agent that reduces the number of bacterial contaminants to safe levels as judged by public health requirements. Practically, a sanitizer must result in 99.999% reduction (5 log order reduction) for given organisms as defined by Germicidal and Detergent Sanitizing Action of Disinfectants, Official Methods of Analysis of the Association of Official Analytical Chemists, paragraph 960.09 and applicable sections, 15th Edition, 1990 (EPA Guideline 91-2). In common practice, substances that are applied to food contact surfaces for antimicrobial purposes must meet this requirement. It has now been discovered that a sanitizer comprising octanoic acid (C8) plus a food additive organic or inorganic acid buffer does indeed meet all of the criteria set forth for a food grade sanitizer. […] Table 1A is a summary of compositions and Table 1B is a summary of their bactericidal activity as determined by the official A.O.A.C. Sanitizing Test. (Germicidal and Detergent Sanitizing Action of Disinfectants, Official Methods of Analysis of the Association of Official Analytical Chemists, paragraph 960.09 and applicable sections, 15th Edition, 1990, EPA guideline 91-2). The octanoic acid is indeed very unique, peaking out at seven log order reductions with both a gram positive (Staphylococcus aureus) and a gram negative (Escherichia coli) bacteria and passes the test requirement for a sanitizing agent. […] Examples IA through IE represent use solutions of the sanitizers.

Staphylococcus aureus = test: as above; conditions: use solutions, 0.1 wt-% fatty acid + 0.1 wt-% lactic acid (88% w/v) in distilled water, solution pH 2.96-2.97
From the text: as §1

Aspergillus niger = test: Fungicidal activity, A.O.A.C. Disinfection Test Method; conditions: spores of Aspergillus niger, compared with the other test organisms of Table 5B
From the text: A disinfectant is an agent that kills all vegetative cells including most recognized pathogenic microorganisms. As such, it must pass a more stringent bactericidal test; the A.O.A.C. Use Dilution Methods, Official Methods of Analysis of the Association of Official Analytical Chemists, paragraph 955.14 and applicable sections, 15th Edition, 1990 (EPA Guideline 91-2). […] Disinfection Test Method. […]

Which results are given for `CCCCCCCCCC(=O)O` [decanoic acid, reference compound]?
Results Log Reductions Col. Forming Units E. coli (Escherichia coli): possesses some activity; Results Log Reductions Col. Forming Units S. aureus (Staphylococcus aureus): possesses some activity

What does the source list for `CCCCCCCC(=O)O` [octanoic acid, Octanoic acid]?
Results Log Reductions Col. Forming Units E. coli (Escherichia coli): seven; Results Log Reductions Col. Forming Units S. aureus (Staphylococcus aureus): seven; concentration for complete kill (Aspergillus niger): required a higher concentration for complete kill
